According to patent EP0062704A1, “Cyclopropanecarboxylic-acid ester as an agent in the fight against larves of the Gasterophilidae family in Equidae” (HOECHST AKTIENGESELLSCHAFT, priority 1980, dated 1982):
Marks after values point to notes of the source that are not given here.

Tests used:
[1] = system: Larven III der Magenbremse, Gasterophilus intestinalis; experiment: In vitro test on larvae III of Gasterophilus intestinalis (5 min immersion, mortality count); settings: 10 larvae immersed 5 min in 0,1 % active dilution, kept at about 37°C
Source text: Beispiel 2 : In vitro Test an Larven von Gasterophilus intestinalis
Die Verbindungen (S)-a-Cyan-3-phenoxybenzyl(1R)-cis-3-(2,2-dibromvinyl)-2,2-dimethylcyclopropancarboxylat, nachfolgend bezeichnet als Verbindung A, (S)-a-Cyan-3-phenoxybenzyl (1R)-cis-3-(2,2-dichlorvinyl)-2,2-dimethylcyclopropancarboxylat, nachfolgend bezeichnet als Verbindung B, (S)-o-Cyan-3-phenoxybenzyl(1R)-cis-3-(2', 2'-dichlor-1',2'-dibromäthyl)-2,2-dimethylcyclopropancarboxylat, nachfolgend bezeichnet als Verbindung C, werden in Zubereitungen nach Beispiel 1 a) so in Wasser verdünnt, daß die Verdünnungen 0,1 % der Wirkstoffe enthalten. Zum Vergleich wird Dimethyl-2,2,2-trichloro-1-hydroxyäthyl-phosphonat (Trichlorfon) in derselben Verdünnung verwendet.
Larven III der Magenbremse, Gasterophilus intestinalis, werden aus dem Magen eines geschlachteten Pferdes entnommen. Jeweils zehn Larven werden in Bechergläsern in die Verdünnungen für 5 Minuten eingetaucht. Zur Kontrolle werden 10 Larven in Wasser eingetaucht. Danach werden die Larven auf Filterpapier getrocknet und in Behälter aus Styropor verbracht, die unter einer Wärmelampe bei etwa 37°C aufbewahrt werden. Nach 1, 6, 24, 48, 72, 96 und 120 Stunden werden alle Larven untersucht und deren Mortalität protokolliert.

Gasterophilus nasalis = experiment: In vivo test in horses infested with stomach bots: G. nasalis; settings: 10 mg/kg by nasogastric tube; for %-Wirksamkeit: expelled and dead larvae as percent of all larvae present, horse; for noch im Magen festgeheftet: larvae at necropsy on day 7, horse; for Zahl der Larven im Kot Total: total of days 1-7, horse
Protocol: (§1) Beispiel 3: In vivo-Prüfung an Pferden mit Magendasselbefall
(§2) Zwei Pferde mit Körpergewichten von 190 kg und 142 kg werden mit den Verbindungen A bzw. C aus Beispiel II behandelt. Die Dosis beträgt 10 mg/kg Körpergewicht. Die sich aus der Dosis und der Konzentration der Arzneizubereitung nach Beispiel 2 zu errechnende Menge der Zubereitung wird im Volumenverhältnis 1 : 1 mit Wasser verdünnt und den Pferden mittels Nasenschlundsonde verabreicht.
(§3) Nach der Behandlung werden die Pferde in Einzelboxen aufgestellt. […] Vorhandene Dassellarven werden gezählt und ihre Artzugehörigkeit bestimmt. Am siebten Tag nach der Behandlung werden die Pferde getötet und der Magen-Darmtrakt auf das Vorhandensein noch angehefteter und toter Dassellarven untersucht.
(§4) Die Zahl der abgegangenen und toten Larven wird auf die Gesamtzahl vorhandener Larven prozentual bezogen und ihr Prozentsatz als "% Wirksamkeit" bezeichnet. Somit besagen 100 %, daß alle und 0 %, daß keine Larven abgetötet und abgetrieben werden.

[2] = system: Gasterophilus intestinalis; experiment: In vivo test in horses infested with stomach bots: G. intestinalis; settings: 10 mg/kg by nasogastric tube; for %-Wirksamkeit: expelled and dead larvae as percent of all larvae present, horse; for noch im Magen festgeheftet: larvae at necropsy on day 7, horse; for Zahl der Larven im Kot Total: total of days 1-7, horse
Protocol: as §1, §2, §3, §4

SMILES | Zahl toter Larven Stunden nach Behandlung ([1]; 1 h after treatment) | Zahl toter Larven Stunden nach Behandlung ([1]; 6 h after treatment) | Zahl toter Larven Stunden nach Behandlung ([1]; 24 h after treatment) | Zahl toter Larven Stunden nach Behandlung ([1]; 48 h after treatment) | Zahl toter Larven Stunden nach Behandlung ([1]; 72 h after treatment) | Zahl toter Larven Stunden nach Behandlung ([1]; 96 h after treatment) | Zahl toter Larven Stunden nach Behandlung ([1]; 120 h after treatment) | Zahl der Larven im Kot an den Tagen nach der Behandlung (Gasterophilus nasalis; day 1, horse) | Zahl der Larven im Kot an den Tagen nach der Behandlung (Gasterophilus nasalis; day 2, horse) | Zahl der Larven im Kot an den Tagen nach der Behandlung (Gasterophilus nasalis; day 3, horse) | Zahl der Larven im Kot an den Tagen nach der Behandlung (Gasterophilus nasalis; day 4, horse) | Zahl der Larven im Kot an den Tagen nach der Behandlung (Gasterophilus nasalis; day 5, horse) | Zahl der Larven im Kot an den Tagen nach der Behandlung (Gasterophilus nasalis; day 6, horse) | Zahl der Larven im Kot an den Tagen nach der Behandlung (Gasterophilus nasalis; day 7, horse) | %-Wirksamkeit (Gasterophilus nasalis) [%] | noch im Magen festgeheftet (Gasterophilus nasalis) | Zahl der Larven im Kot Total (Gasterophilus nasalis) | Zahl der Larven im Kot an den Tagen nach der Behandlung ([2]; day 1, horse) | Zahl der Larven im Kot an den Tagen nach der Behandlung ([2]; day 2, horse) | Zahl der Larven im Kot an den Tagen nach der Behandlung ([2]; day 3, horse) | further results
COP(=O)(OC)C(O)C(Cl)(Cl)Cl (centres unmarked) [Trichlorfon, Dimethyl-2,2,2-trichloro-1-hydroxyäthyl-phosphonat, reference compound] | 6* | 7* | 4* | 5* | 9* | 6* | 6* | – | – | – | – | – | – | – | – | – | – | – | – | – | –
CC1(C)[C@H](C(=O)O[C@H](C#N)c2cccc(Oc3ccccc3)c2)[C@@H]1C=C(Br)Br [Verbindung A, (S)-a-Cyan-3-phenoxybenzyl(1R)-cis-3-(2,2-dibromvinyl)-2,2-dimethylcyclopropancarboxylat] | 10 | 10 | 10 | 10 | 10 | 10 | 10 | 1 | 4 | 1 | 0 | 0 | 0 | 0 | 100 | 0 | 6 | 2 | 16 | 18 | Zahl der Larven im Kot an den Tagen nach der Behandlung ([2]; day 4, horse): 5; Zahl der Larven im Kot an den Tagen nach der Behandlung ([2]; day 5, horse): 0; Zahl der Larven im Kot an den Tagen nach der Behandlung ([2]; day 6, horse): 0; Zahl der Larven im Kot an den Tagen nach der Behandlung ([2]; day 7, horse): 0; %-Wirksamkeit [2]: 93%; noch im Magen festgeheftet [2]: 3; Zahl der Larven im Kot Total [2]: 41
CC1(C)[C@H](C(=O)O[C@H](C#N)c2cccc(Oc3ccccc3)c2)[C@@H]1C=C(Cl)Cl [Verbindung B, (S)-a-Cyan-3-phenoxybenzyl (1R)-cis-3-(2,2-dichlorvinyl)-2,2-dimethylcyclopropancarboxylat] | 10 | 10 | 10 | 10 | 10 | 10 | 10 | – | – | – | – | – | – | – | – | – | – | – | – | – | –
CC1(C)[C@H](C(=O)O[C@H](C#N)c2cccc(Oc3ccccc3)c2)[C@@H]1C(Br)C(Cl)(Cl)Br (stereo partly drawn) [Verbindung C, (S)-o-Cyan-3-phenoxybenzyl(1R)-cis-3-(2', 2'-dichlor-1',2'-dibromäthyl)-2,2-dimethylcyclopropancarboxylat] | 4 | 10 | 10 | 10 | 10 | 10 | 10 | 0 | 3 | 7 | 1 | 0 | 0 | 0 | 100 | 0 | 11 | 1 | 2 | 8 | Zahl der Larven im Kot an den Tagen nach der Behandlung ([2]; day 4, horse): 10; Zahl der Larven im Kot an den Tagen nach der Behandlung ([2]; day 5, horse): 7; Zahl der Larven im Kot an den Tagen nach der Behandlung ([2]; day 6, horse): 2; Zahl der Larven im Kot an den Tagen nach der Behandlung ([2]; day 7, horse): 0; %-Wirksamkeit [2]: 100%; noch im Magen festgeheftet [2]: 0; Zahl der Larven im Kot Total [2]: 30
